Consider 9 compounds from BindingDB's records for doi:10.1021/jm00001a008 (R. W. Johnson Pharmaceutical Research Institute, 1995).

Where a name gives a salt, the structure may show the parent alone. Where only a bound is given, the exact number is not on record here.

For assay [1], the target named is T1, Integrin alpha-IIb/beta-3 (Homo sapiens, UniProt P08514+P05106). Nature of the assay: Inhibition of collagen-induced platelet aggregation.
Assay [2] addresses T1, Integrin alpha-IIb/beta-3. Nature of the assay: Inhibition of arachidonic acid-induced platelet aggregation.
Assay [3] has as its target T1, Integrin alpha-IIb/beta-3. Nature of the assay: Inhibition of thrombin-induced platelet aggregation at 50 uM.

By IC50 is commonly meant the concentration needed to halve the response being measured.

T1 sequence (P05106 27-788 limits assumed): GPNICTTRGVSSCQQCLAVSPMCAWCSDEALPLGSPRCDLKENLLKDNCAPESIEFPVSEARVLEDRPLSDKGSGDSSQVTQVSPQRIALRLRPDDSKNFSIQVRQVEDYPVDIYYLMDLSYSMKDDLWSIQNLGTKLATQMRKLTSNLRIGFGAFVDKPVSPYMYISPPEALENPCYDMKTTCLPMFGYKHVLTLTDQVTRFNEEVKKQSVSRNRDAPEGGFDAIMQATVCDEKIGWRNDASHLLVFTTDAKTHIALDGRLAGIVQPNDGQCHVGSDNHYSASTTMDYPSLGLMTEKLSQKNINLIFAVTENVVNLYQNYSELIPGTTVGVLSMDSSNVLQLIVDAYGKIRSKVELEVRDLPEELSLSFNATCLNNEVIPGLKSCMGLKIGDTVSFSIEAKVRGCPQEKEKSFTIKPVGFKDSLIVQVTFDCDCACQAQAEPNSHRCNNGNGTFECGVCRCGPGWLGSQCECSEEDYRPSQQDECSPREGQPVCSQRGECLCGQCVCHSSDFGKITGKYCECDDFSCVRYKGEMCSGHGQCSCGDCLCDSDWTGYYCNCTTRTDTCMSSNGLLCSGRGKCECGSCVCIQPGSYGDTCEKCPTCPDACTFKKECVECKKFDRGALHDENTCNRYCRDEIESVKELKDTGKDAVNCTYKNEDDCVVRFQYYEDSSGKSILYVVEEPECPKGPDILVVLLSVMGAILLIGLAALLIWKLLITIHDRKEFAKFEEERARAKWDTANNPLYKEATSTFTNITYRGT
T1 sequence (P08514 32-887 limits assumed): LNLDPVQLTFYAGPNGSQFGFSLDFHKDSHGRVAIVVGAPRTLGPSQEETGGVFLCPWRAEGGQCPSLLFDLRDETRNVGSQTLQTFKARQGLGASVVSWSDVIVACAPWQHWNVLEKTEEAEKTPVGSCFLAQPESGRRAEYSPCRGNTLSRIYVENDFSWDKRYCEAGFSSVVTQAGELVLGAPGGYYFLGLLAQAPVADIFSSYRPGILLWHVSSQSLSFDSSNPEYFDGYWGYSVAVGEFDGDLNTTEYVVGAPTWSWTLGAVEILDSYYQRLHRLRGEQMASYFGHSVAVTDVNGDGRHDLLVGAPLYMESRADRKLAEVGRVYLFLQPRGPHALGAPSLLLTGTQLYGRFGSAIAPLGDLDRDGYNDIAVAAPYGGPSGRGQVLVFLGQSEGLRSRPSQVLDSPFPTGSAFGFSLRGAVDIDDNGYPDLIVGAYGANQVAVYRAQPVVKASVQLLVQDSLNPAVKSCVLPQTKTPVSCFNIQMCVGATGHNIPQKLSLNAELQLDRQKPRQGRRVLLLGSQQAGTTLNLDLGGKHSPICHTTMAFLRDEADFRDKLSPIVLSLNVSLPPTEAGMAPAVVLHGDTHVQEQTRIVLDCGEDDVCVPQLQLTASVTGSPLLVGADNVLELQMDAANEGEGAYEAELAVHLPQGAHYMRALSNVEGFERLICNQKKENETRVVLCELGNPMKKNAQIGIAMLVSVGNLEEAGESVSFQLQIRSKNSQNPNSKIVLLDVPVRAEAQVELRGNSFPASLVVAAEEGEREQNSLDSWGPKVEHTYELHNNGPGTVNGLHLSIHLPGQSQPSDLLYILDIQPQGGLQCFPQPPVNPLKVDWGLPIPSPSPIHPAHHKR
T1 sequence (P08514 891-1039 limits assumed): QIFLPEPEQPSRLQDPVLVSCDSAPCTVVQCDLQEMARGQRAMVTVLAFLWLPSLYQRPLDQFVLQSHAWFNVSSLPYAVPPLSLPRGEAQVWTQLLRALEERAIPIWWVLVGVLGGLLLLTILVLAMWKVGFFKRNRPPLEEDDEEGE

Take `CCN(CC)CCCNC(=O)c1cnn(-c2nc(-c3cccc(C(F)(F)F)c3)c(Br)s2)c1C(F)(F)F` [1-[5-Bromo-4-(3-trifluoromethyl-phenyl)-thiazol-2-yl]-5-trifluoromethyl-1H-pyrazole-4-carboxylic acid (3-diethylamino-propyl)-amide]: the concentration for half-maximal inhibition (IC50) in assay [1] was determined as 3.5 µM; in assay [2], 2.1 µM.

For the compound `CC(=O)Oc1ccccc1C(=O)O` [2-(acetyloxy)benzoic acid], the IC50 in assay [1] was above 100 µM; in assay [2], 5 µM. `NCCNC(=O)c1cnn(-c2nc(-c3cccc(C(F)(F)F)c3)cs2)c1C(F)(F)F` [5-Trifluoromethyl-1-[4-(3-trifluoromethyl-phenyl)-thiazol-2-yl]-1H-pyrazole-4-carboxylic acid (2-amino-ethyl)-amide; hydrochloride] yielded a 50% inhibitory concentration (IC50) in assay [3] of 11.2 µM. This counts as double-digit micromolar. Take `NCCCNC(=O)c1cnn(-c2nc(-c3cccc(C(F)(F)F)c3)cs2)c1C(F)(F)F` [5-Trifluoromethyl-1-[4-(3-trifluoromethyl-phenyl)-thiazol-2-yl]-1H-pyrazole-4-carboxylic acid (3-amino-propyl)-amide; hydrochloride]: the IC50 worked out at 3 µM in assay [1] and 3.7 µM in assay [2].

For `CCN(CC)CCCNC(=O)c1cnn(-c2nc(-c3cccc(C(F)(F)F)c3)cs2)c1C(F)(F)F` [5-Trifluoromethyl-1-[4-(3-trifluoromethyl-phenyl)-thiazol-2-yl]-1H-pyrazole-4-carboxylic acid (3-diethylamino-propyl)-amide], the IC50 is 2.5 µM in assay [1] and 0.4 µM in assay [2].

On to `O=C(NCCCN1CCCCC1)c1cnn(-c2nc(-c3cccc(C(F)(F)F)c3)cs2)c1C(F)(F)F` [5-Trifluoromethyl-1-[4-(3-trifluoromethyl-phenyl)-thiazol-2-yl]-1H-pyrazole-4-carboxylic acid (3-piperidin-1-yl-propyl)-amide], for which the values for the IC50 in assay [1] and in assay [2] were 3 µM and 12 µM, respectively. The like results for `CCCNCCCNC(=O)c1cnn(-c2nc(-c3cccc(C(F)(F)F)c3)cs2)c1C(F)(F)F` [5-Trifluoromethyl-1-[4-(3-trifluoromethyl-phenyl)-thiazol-2-yl]-1H-pyrazole-4-carboxylic acid (3-propylamino-propyl)-amide] were, in that order, 3.5 µM and 4.1 µM. The like results for `NCCCCNC(=O)c1cnn(-c2nc(-c3cccc(C(F)(F)F)c3)cs2)c1C(F)(F)F` [5-Trifluoromethyl-1-[4-(3-trifluoromethyl-phenyl)-thiazol-2-yl]-1H-pyrazole-4-carboxylic acid (4-amino-butyl)-amide; hydrochloride] were, in that order, 0.1 µM and 4.5 µM. In assay [2], `COc1ccc(CCNC(=O)C(CC(=O)O)NC(=O)CCCCCCCNC(=N)N)cc1` (stereo unspecified) [SC-47643] gave an IC50 of 2.4 µM.
